Test results reported in a melting point compilation (Tetko et al.; mined from patent text by program, amines drawn as free bases though some values may be those of a salt).

Row | Compound | melting point
1 | COC(=O)CCCc1cc2nc(Cl)ccc2n1S(=O)(=O)c1cccc2nc(C)sc12 | 138 °C
2 | COC(=O)c1cc(C(=O)NCC(C)(C)C)ccc1-c1cc(C(=O)OC(C)(C)C)cc(F)c1C | 68 to 74 °C
3 | COC(=O)Nc1c(C(=O)O)ccc(Cl)c1Cl | 155 to 156 °C
4 | N#CC(=C1CCN(Cc2ccccc2)CC1)c1ccc(F)cc1 | 81 to 83 °C
5 | O=C(Nc1nc2ccccc2c(=O)n1-c1ccccc1)c1ccccc1 | 185 to 188 °C
6 | Cc1cc(Br)cc(C=O)c1F | 48 to 50 °C
7 | COCCc1sc2ncnc(N)c2c1-c1ccc(NC(=O)Nc2ccccc2C)cc1 | 217 to 219 °C
8 | Cc1ccc(C(=O)NC2CC2)cc1-c1cc2cnc(NC3CCOCC3)nc2n(C)c1=O | 239 to 241 °C
9 | COC(=O)c1ccc2cc(OC)ccc2n1 | 129 °C
10 | CCc1nc2c(=O)[nH]c(=O)n(C)c2nc1CC | 218 to 222 °C
11 | CSc1c(CC(C)(C)C(=O)O)n(Cc2ccc(Cl)cc2)c2ccc(C(C)C)cc12 | 143 to 144 °C
12 | CCCN1CCC=C(c2csc(NC(C)=O)n2)C1 | 109 to 112 °C
13 | CCc1c(-c2ccc(OCc3ccccc3)cc2)c2cc(C(=O)O)c3cccc1n32 | 223 to 224 °C
14 | CCCCC1=NC2(CCCC2)C(=O)N1Cc1ccc(-c2ccccc2S(=O)(=O)Nc2onc(C)c2C)c(CC(C)C)c1 | 58 to 61 °C
15 | O=C1c2cccc3cc([N+](=O)[O-])cc(c23)C(=O)N1OCc1ccccc1 | 239 to 241 °C
16 | C=C(Cl)Cc1cc2c(C)cc(=O)oc2c(C)c1O | 135 to 163 °C
17 | Cn1c(C(F)(F)F)cc(=O)n(-c2cc(OC(=O)CC#N)c(Cl)cc2F)c1=O | 157 to 160 °C
18 | Cn1cc(C(=O)NCc2ccc(Cl)cc2)c(=O)c2cc(CN3CCOCC3)cc(C#CCC[C@@H]3COC(=O)N3)c21 | 171 to 173 °C
19 | CCS(=O)(=O)C(F)(F)C(O)(Cn1cncn1)c1ccc(F)cc1 (stereo not given) | 131 to 132 °C
20 | C=CCOc1ccc([C@H]2CCN(C(=O)OC(C)(C)C)C[C@@H]2O)cc1 (racemic) | 113 °C
21 | CC(C)NC1CCn2c(CCc3ccccc3)nc3cccc1c32 (stereo not given) | 95.5 to 97.7 °C
22 | COc1cccc(COc2cc3c(cc2OC)C(=O)N(Cc2cccc(OC)c2)CC3)c1 | 85 to 86 °C
23 | O=C(O)C#Cc1ccc(-c2ccccc2)cc1 | 170 °C
24 | CCOC(=O)CSc1nnc(-c2ccc3c(c2)CCO3)o1 | 92 to 93 °C

Row | Compound | melting point
25 | COc1cc2ncc(C(=O)NCc3ccc(Cl)cc3)c(O)c2cc1OC | 184 °C
26 | COc1cc(-c2ccc(C=O)cc2)nc(C)n1 | 114 to 115 °C
27 | COc1cc(C(=O)ON=C(C)N)cc([N+](=O)[O-])c1OC | 165 to 166 °C
28 | CCOC(=O)c1cn(N(C)C=O)c2c(F)c(N3CCN(C)CC3)c(F)cc2c1=O | 180 °C
29 | COc1cc(F)c(-c2nn(C)c(C(F)(F)F)c2Cl)cc1[N+](=O)[O-] | 116 °C
30 | Cc1c(-c2cc(Nc3cc4n(n3)CCN(C)C4)c(=O)n(CO)n2)cccc1N1Cc2cc(C(C)(C)C)sc2C1=O | 185 to 187 °C
31 | Cc1cc(C(=O)N2CCCC2)ccc1[N+](=O)[O-] | 61.3 to 61.9 °C
32 | CC1(C)COC(=O)N1c1nc(-c2ccc([N+](=O)[O-])cc2)cs1 | 176 to 179 °C
33 | COc1ccc(-n2nc(-c3ccc(OC)c(CCC(=O)O)c3OC)cc2-c2ccc(Cl)cc2)cc1 | 100 to 101 °C
34 | CCOC(=O)C1=C(C)NC2=C(C(=O)OC2)C1c1ccccc1OC (stereo not given) | 219 to 220 °C
35 | O=C1Cc2cc(Br)cnc2N1 | 250 °C
36 | Cc1ccc(S(=O)(=O)N2CC[C@@H](C(C#N)(c3ccccc3)c3ccccc3)C2)cc1 | 165 to 178 °C
37 | O=C(O)CCc1cn(Cc2ccc(OCc3csc(-c4ccccn4)n3)cc2)cc1-c1ccccc1 | 117 to 118 °C
38 | O=C1CCCc2cc(O)ccc21 | 153 to 155 °C
39 | Cc1cc(-c2ncn3c(C(F)(F)F)cc(-c4ccc(C(F)(F)F)c(C(F)(F)F)c4)nc23)ccn1 | 218 °C
40 | CCc1nn(-c2ccccc2)nc1/C(C#N)=C(\OC(=O)C(C)(C)C)c1c(C)c(C)nn1C | 119 °C
41 | CN(C)CCCC1(O)c2ccccc2CCc2c(C3(C)OCCO3)cccc21 (stereo not given) | 122 to 124 °C
42 | CCCc1cc(Cl)c2oc(Cc3ccc(OCC(=O)O)cc3)c(C)c2c1O | 179 to 180 °C
43 | CN(C)CCNc1ccc(Cl)nn1 | 86 to 92 °C
44 | CC(C)N(Cc1cnc(-c2ncn3c2CN(C)C(=O)c2cc(F)ccc2-3)o1)C(C)C | 176 to 178 °C
45 | CN(C)S(=O)(=O)c1cccc(OC(F)F)c1C#N | 100 to 102 °C
46 | CCN(CC)C(=O)c1ccc(C)c(-c2nc(NCCNC(C)C)nc3c2CNC(=O)N3c2c(F)cccc2F)c1 | 89 to 91 °C
47 | CCNS(=O)(=O)c1cncc([N+](=O)[O-])c1 | 117 to 118 °C
48 | CCOC(CCOc1cc(Cc2cnc(N)nc2N)cc(OC)c1OC)OCC | 105 to 106 °C

Row | Compound | melting point
49 | OCc1ncc(O)c2c1[nH]c1ccccc12 | 148 °C
50 | COc1ccc(Oc2c(-c3ccc(S(C)(=O)=O)cc3)cnn(-c3cccc(Cl)c3)c2=O)cc1 | 182 to 184 °C
51 | O=C(Cl)c1ccc2c(c1)C(C(F)(F)F)(C(F)(F)F)c1cc(C(=O)Cl)ccc1O2 | 216 to 218 °C
52 | NC(=O)CCCCCCCCCCC(Cl)(Cl)C(=O)O | 93 to 94 °C
53 | CNc1cccc(OCc2ccccc2)c1N | 79 to 81 °C
54 | C=C(C)C(CC=C(C)C)CC12CC(CC=C(C)C)C(C)(C)C(CC=C(C)C)(C(=O)C(C(=O)c3ccc(O)c(O)c3)=C1O)C2=O (stereo not given) | 126 °C
55 | N#CN1c2ccccc2CC(=O)c2ccccc21 | 153 to 154 °C
56 | O=[N+]([O-])c1cc(CCCl)ccc1O | 53 to 55 °C
57 | COc1ccc(C(=O)Nc2ncnc3c2ncn3[C@H]2CC[C@H](CC(=O)O)C[C@@H]2NC(=O)OC(C)(C)C)cc1 | 238 to 239 °C
58 | CCCc1c(OCCCOc2ccc(Br)cc2)ccc2c1OC(CCC(=O)O)(CCC(=O)O)CC2=O | 136 °C
59 | COc1ccc2[nH]cc(C=C3SC(=S)N(CC(=O)O)C3=O)c2c1 | 266 °C
60 | CN(CCCNC(=O)c1ccccc1)CCCc1c[nH]c2ccccc12 | 73 to 74 °C
61 | COc1ccc2c(c1)c(C1=C(c3cn(C)c4ccc(OC)cc34)C(=O)N(C)C1=O)cn2C | 114 to 117 °C
62 | COc1cc(C2=Nc3ccc(N4CCCC4)cc3C(=O)C2)ccc1OCc1ccccc1 | 304 to 306 °C
63 | COC(=O)C(C)(C)OCC#Cc1cc(Cl)ccc1NS(=O)(=O)c1ccc2c(c1)OCCN2C | 98 to 100 °C
64 | O=C(O)CCC(=O)OC1CCCN(C(=O)Cn2c(=O)sc3ccc(Cl)cc32)C1 (stereo not given) | 131 to 133 °C
65 | COC(=O)c1c(C)nc(-c2ccccc2)nc1-c1cccc(OC(F)F)c1 | 62 to 63 °C
66 | COc1ccc([N+](=O)[O-])c(Oc2cc(C)[nH]n2)n1 | 133 to 136 °C
67 | COc1ccc(C=CC(=O)c2c(OC)cc(OC)cc2OC(=O)c2ccc(OC)cc2OC)cc1 | 119 to 120 °C
68 | COc1cc(/C=C/c2ccc(C(C)C)cc2)cc(OC)c1OC | 74 to 75 °C
69 | COCc1cccc(COC)c1C#N | 80 to 81 °C
70 | FC1CNC(c2ccc3c(c2)OCO3)c2[nH]c3ccccc3c21 (stereo not given) | 172 °C
